This is an account of results in patent US20230114728A1 (Venatorx Pharmaceuticals, Inc., priority 2019, published 2023).

Values after ≈ are worked out from the molar mass of the structure shown. Bounds are passed on as bounds.

The target of one assay is T1, P. aeruginosa PBP3 (Pseudomonas aeruginosa, UniProt G3XD46).
T1 construct: made in house
The assay is described as follows: Bocillin-FL fluorescence polarization competition binding assay, P. aeruginosa PBP3. The settings on record: fluorescence polarization competition binding assay using Bocillin-FL. Put shortly: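 Binding of boronic acid inhibitors to purified Pseudomonas aeruginosa (PA01) PBP3 was measured by fluorescence polarization competition with Bocillin-FL, a fluorescent penicillin V. Reactions of 80 μl contained 0.75 μM PBP3 and 0.1 μM Bocillin-FL in 50 mM Hepes (pH 8.0), 300 mM NaCl and 5% (v/v) glycerol, in black 384-well plates. FP (Excitation 490 nm, Emission 520 nm) was read for up to 60 minutes. EC50 is the concentration that halves PBP-bound Bocillin-FL.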
In general terms: Fluorescence polarisation rises when a labelled molecule tumbles more slowly, as on binding a larger partner.

A short description of assay [1]: Bocillin-FL fluorescence polarization competition binding assay, A. baumannii PBP3. As to conditions: fluorescence polarization competition binding assay using Bocillin-FL; column 3; read-out: 4. baumannii PBP1a Potency. Put shortly:
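Fluorescence polarization (ex 490/em 520 nm) competition of inhibitors against Bocillin-FL at 0.1 μM, read up to 60 min. Final PBP levels: E. coli PBP3 1.5 μM; A. baumannii PBP2 2.5 μM, PBP3 0.2 μM in Tris pH 8.0/NaCl/glycerol/Tween 20; N. gonorrhoeae PBP2 […] in Hepes pH 8.0/NaCl/glycerol. EC50 = concentration halving PBP-bound Bocillin-FL.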

A further assay concerns N. gonorrhoeae WHO Q. Put plainly: Liquid broth MIC in Fastidious broth. Type of assay: cell-based. As to conditions: Neisseria gonorrhoeae, read-out: Minimum Inhibitory Concentration, N. gonorrhoeae WHO Q. A digest of the protocol: (§1)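 Mosaic-PBP2 strains grown 24 h on chocolate agar (36 °C, 5% CO2), then direct-suspended in saline and OD600-adjusted. Twofold compound dilutions in Fastidious broth inoculated at 5×10^5 CFU/mL and incubated ~24 h at 36 °C, 5% CO2. MIC read visually as lowest concentration with <10% growth versus full-growth wells.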

In a further assay the test system is N. gonorrhoeae WHO Z. Put plainly: Liquid broth MIC in Fastidious broth. As to conditions: Neisseria gonorrhoeae, read-out: Minimum Inhibitory Concentration, N. gonorrhoeae WHO Z. Type of assay: cell-based. Put shortly: as §1

T1 sequence (G3XD46 whole entry): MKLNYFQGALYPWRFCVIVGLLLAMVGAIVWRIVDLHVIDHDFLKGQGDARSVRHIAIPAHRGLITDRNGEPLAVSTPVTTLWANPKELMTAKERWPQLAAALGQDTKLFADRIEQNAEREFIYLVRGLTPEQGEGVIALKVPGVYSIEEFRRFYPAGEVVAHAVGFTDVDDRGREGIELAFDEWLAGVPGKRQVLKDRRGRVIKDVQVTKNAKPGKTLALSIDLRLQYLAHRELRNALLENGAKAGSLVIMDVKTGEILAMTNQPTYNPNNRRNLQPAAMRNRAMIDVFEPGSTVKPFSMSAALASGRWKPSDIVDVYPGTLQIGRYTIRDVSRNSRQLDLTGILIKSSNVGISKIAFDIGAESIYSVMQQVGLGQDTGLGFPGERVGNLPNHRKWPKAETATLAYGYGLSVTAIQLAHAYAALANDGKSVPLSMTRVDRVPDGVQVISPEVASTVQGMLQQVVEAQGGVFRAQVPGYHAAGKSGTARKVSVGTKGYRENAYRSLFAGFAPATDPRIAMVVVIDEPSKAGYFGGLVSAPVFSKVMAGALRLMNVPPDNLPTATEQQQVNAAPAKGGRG

For `CS(=O)(=O)N1CCN(C(=O)N[C@@H](C(=O)N[C@H]2Cc3ccc(F)c(C(=O)O)c3OB2O)c2c(F)cc(O)c(O)c2Cl)C1=O` (single isomer, unassigned) [Example 35], the “P. aeruginosa PBP3 Potency” value at P. aeruginosa PBP3 is recorded as “D (D represents a potency <10 μM)”. In assay [1], the EC50 lay in the range of 30 to 100 µM.
For `NCCN1CCN(C(=O)N[C@@H](C(=O)N[C@H]2Cc3ccc(F)c(C(=O)O)c3OB2O)c2c(F)cc(O)c(O)c2F)C(=O)C1=O` (single isomer, unassigned) [Example 40] the same measures were “D (D represents a potency <10 μM)” and greater than 100 µM.
The like results for `NCCCN1CCN(C(=O)N[C@@H](C(=O)N[C@H]2Cc3ccc(F)c(C(=O)O)c3OB2O)c2c(F)cc(O)c(O)c2F)C(=O)C1=O` (single isomer, unassigned) [Example 41] were, in that order, “D (D represents a potency <10 μM)” and 30 to 100 µM.
As to `NCCN1CCN(C(=O)N[C@@H](C(=O)N[C@H]2Cc3cccc(C(=O)O)c3OB2O)c2ccc(O)cc2Cl)C(=O)C1=O` (single isomer, unassigned) [Example 86], the “P. aeruginosa PBP3 Potency” value at P. aeruginosa PBP3 is “D (D represents a potency <10 μM)”. For the same compound, the EC50 in assay [1] is 10 to 30 µM. The MIC in the assay on N. gonorrhoeae WHO Q and in the assay on N. gonorrhoeae WHO Z was greater than 64 µg/mL in each case.
With `O=C(O)c1ccc(C(NC(=O)c2ccc(O)c(O)c2Cl)C(=O)N[C@H]2Cc3cccc(C(=O)O)c3OB2O)cc1F` (stereo partly drawn) [Example 7, (3R)-3-(2-(4-carboxy-3-fluorophenyl)-2-(2-chloro-3,4-dihydroxybenzamido)acetamido)-2-hydroxy-3,4-dihydro-2H-benzo[e][1,2]oxaborinine-8-carboxylic acid], the “P. aeruginosa PBP3 Potency” value at P. aeruginosa PBP3 is on record as “D (D represents a potency <10 μM)”. Also, the EC50 in assay [1] was greater than 100 µM.
`O=C(NC(C(=O)N[C@H]1Cc2ccc(F)c(C(=O)O)c2OB1O)c1ncc(O)cc1F)c1ccc(O)c(O)c1Cl` (stereo partly drawn) [Example 8, (3R)-3-(2-(2-chloro-3,4-dihydroxybenzamido)-2-(3-fluoro-5-hydroxypyridin-2-yl)acetamido)-7-fluoro-2-hydroxy-3,4-dihydro-2H-benzo[e][1,2]oxaborinine-8-carboxylic acid]: on P. aeruginosa PBP3, the “P. aeruginosa PBP3 Potency” value is recorded as “D (D represents a potency <10 μM)”. In addition, the EC50 in assay [1] was greater than 100 µM.
For `O=C(Nc1ccc(O)c(O)c1Cl)NC(C(=O)N[C@H]1Cc2ccc(F)c(C(=O)O)c2OB1O)c1ncc(O)cc1F` (stereo partly drawn) [Example 9, (3R)-3-(2-(3-(2-chloro-3,4-dihydroxyphenyl)ureido)-2-(3-fluoro-5-hydroxypyridin-2-yl)acetamido)-7-fluoro-2-hydroxy-3,4-dihydro-2H-benzo[e][1,2]oxaborinine-8-carboxylic acid] the same measures were “D (D represents a potency <10 μM)” and 30 to 100 µM.
Take `O=C(O)c1ccc(C(NC(=O)N2CCN(CCNC(=O)c3ccc(O)c(O)c3Cl)C(=O)C2=O)C(=O)N[C@H]2Cc3ccc(F)c(C(=O)O)c3OB2O)cc1F` (stereo partly drawn) [Example 11, (3R)-3-(2-(4-carboxy-3-fluorophenyl)-2-(4-(2-(2-chloro-3,4-dihydroxybenzamido)ethyl)-2,3-dioxopiperazine-1-carboxamido)acetamido)-7-fluoro-2-hydroxy-3,4-dihydro-2H-benzo[e][1,2]oxaborinine-8-carboxylic acid]: the EC50 in assay [1] lay in the range of 10 to 30 µM. The MIC in the assay with N. gonorrhoeae WHO Z lay in the range of 16 to 32 µg/mL (≈ 20.7 to 41.4 µM).
With `CCN1CCN(C(=O)NC(C(=O)N[C@H]2Cc3ccc(F)c(C(=O)O)c3OB2O)c2ccc(C(=O)O)cc2)C(=O)C1=O` (stereo partly drawn) [Example 15, (3R)-3-(2-(4-carboxyphenyl)-2-(4-ethyl-2,3-dioxopiperazine-1-carboxamido)acetamido)-7-fluoro-2-hydroxy-3,4-dihydro-2H-benzo[e][1,2]oxaborinine-8-carboxylic acid], at P. aeruginosa PBP3, the “P. aeruginosa PBP3 Potency” value is given as “D (D represents a potency <10 μM)”. For the same compound, the EC50 in assay [1] is greater than 100 µM. Further, the MIC with N. gonorrhoeae WHO Z was 1 to 2 µg/mL (≈ 1.75 to 3.51 µM).
For the compound `CS(=O)(=O)N1CCN(C(=O)NC(C(=O)N[C@H]2Cc3ccc(F)c(C(=O)O)c3OB2O)c2ccc(O)c(O)c2Cl)C1=O` (stereo partly drawn) [Example 23, (3R)-3-(2-(2-chloro-3,4-dihydroxyphenyl)-2-(3-(methylsulfonyl)-2-oxoimidazolidine-1-carboxamido)acetamido)-7-fluoro-2-hydroxy-3,4-dihydro-2H-benzo[e][1,2]oxaborinine-8-carboxylic acid], at P. aeruginosa PBP3, the “P. aeruginosa PBP3 Potency” value is recorded as “D (D represents a potency <10 μM)”. In addition, in assay [1], the EC50 lay in the range of 30 to 100 µM.
Turning to `NC(C(=O)N[C@H]1Cc2ccc(F)c(C(=O)O)c2OB1O)c1c(F)cc(O)c(O)c1Cl` (stereo partly drawn) [Example 25, (3R)-3-(2-amino-2-(2-chloro-6-fluoro-3,4-dihydroxyphenyl)acetamido)-7-fluoro-2-hydroxy-3,4-dihydro-2H-benzo[e][1,2]oxaborinine-8-carboxylic acid], the “P. aeruginosa PBP3 Potency” value at P. aeruginosa PBP3 was “B (B represents a potency between 30 μM and 500 μM inclusive)”. In addition, the EC50 in assay [1] is greater than 100 µM.
On to `CCN1CCN(C(=O)NC(C(=O)N[C@H]2Cc3ccc(F)c(C(=O)O)c3OB2O)c2c(F)cc(O)c(O)c2F)C(=O)C1=O` (stereo partly drawn) [Example 36, (3R)-3-(2-(2,6-difluoro-3,4-dihydroxyphenyl)-2-(4-ethyl-2,3-dioxopiperazine-1-carboxamido)acetamido)-7-fluoro-2-hydroxy-3,4-dihydro-2H-benzo[e][1,2]oxaborinine-8-carboxylic acid], for which the “P. aeruginosa PBP3 Potency” value at P. aeruginosa PBP3 is “D (D represents a potency <10 μM)”. Moreover, in assay [1], the EC50 fell in the range of 10 to 30 µM.
The like results for `O=C(O)c1c(F)ccc2c1OB(O)[C@@H](NC(=O)C(NC(=O)N1CCN(CCF)C(=O)C1=O)c1c(F)cc(O)c(O)c1F)C2` (stereo partly drawn) [Example 37, (3R)-3-(2-(2,6-difluoro-3,4-dihydroxyphenyl)-2-(4-(2-fluoroethyl)-2,3-dioxopiperazine-1-carboxamido)acetamido)-7-fluoro-2-hydroxy-3,4-dihydro-2H-benzo[e][1,2]oxaborinine-8-carboxylic acid] were, in that order, “D (D represents a potency <10 μM)” and 30 to 100 µM.
For `NCCCN1CCN(C(=O)NC(C(=O)N[C@H]2Cc3cccc(C(=O)O)c3OB2O)c2ccc(C(=O)O)cc2)C(=O)C1=O` (stereo partly drawn) [Example 39, (3R)-3-(2-(4-(3-aminopropyl)-2,3-dioxopiperazine-1-carboxamido)-2-(4-carboxyphenyl)acetamido)-2-hydroxy-3,4-dihydro-2H-benzo[e][1,2]oxaborinine-8-carboxylic acid] the same measures were “D (D represents a potency <10 μM)” and 30 to 100 µM.
The like results for `CCN1CCN(C(=O)NC(C(=O)N[C@H]2Cc3ccc(F)c(C(=O)O)c3OB2O)c2cc(F)c(O)c(O)c2Cl)C(=O)C1=O` (stereo partly drawn) [Example 42, (3R)-3-(2-(2-chloro-5-fluoro-3,4-dihydroxyphenyl)-2-(4-ethyl-2,3-dioxopiperazine-1-carboxamido)acetamido)-7-fluoro-2-hydroxy-3,4-dihydro-2H-benzo[e][1,2]oxaborinine-8-carboxylic acid] were, in that order, “D (D represents a potency <10 μM)” and 30 to 100 µM.
On to `O=C(O)c1ccc(C(NC(=O)c2c(F)cc(O)c(O)c2Cl)C(=O)N[C@H]2Cc3ccc(F)c(C(=O)O)c3OB2O)cc1F` (stereo partly drawn) [Example 71, (3R)-3-(2-(4-carboxy-3-fluorophenyl)-2-(2-chloro-6-fluoro-3,4-dihydroxybenzamido)acetamido)-7-fluoro-2-hydroxy-3,4-dihydro-2H-benzo[e][1,2]oxaborinine-8-carboxylic acid], for which the “P. aeruginosa PBP3 Potency” value on P. aeruginosa PBP3 is “D (D represents a potency <10 μM)”. In assay [1], the EC50 is greater than 100 µM. The MIC in the assay on N. gonorrhoeae WHO Q and in the assay with N. gonorrhoeae WHO Z was greater than 64 µg/mL each time.
Regarding `CCN1CCN(C(=O)NC(C(=O)N[C@H]2Cc3cccc(C(=O)O)c3OB2O)c2cccc(NC(=O)c3ccc(O)c(O)c3Cl)c2)C(=O)C1=O` (stereo partly drawn) [Example 73, (3R)-3-(2-(3-(2-chloro-3,4-dihydroxybenzamido)phenyl)-2-(4-ethyl-2,3-dioxopiperazine-1-carboxamido)acetamido)-2-hydroxy-3,4-dihydro-2H-benzo[e][1,2]oxaborinine-8-carboxylic acid], the “P. aeruginosa PBP3 Potency” value on P. aeruginosa PBP3 is recorded as “D (D represents a potency <10 μM)”. For the same compound, in assay [1], the EC50 is less than 10 µM. The MIC in the assay on N. gonorrhoeae WHO Q and in the assay with N. gonorrhoeae WHO Z was greater than 64 µg/mL in each case.
Consider `CCN1CCN(C(=O)NC(C(=O)N[C@H]2Cc3cccc(C(=O)O)c3OB2O)c2ccc(O)c(NC(=O)c3ccc(O)c(O)c3Cl)c2)C(=O)C1=O` (stereo partly drawn) [Example 74, (3R)-3-(2-(3-(2-chloro-3,4-dihydroxybenzamido)-4-hydroxyphenyl)-2-(4-ethyl-2,3-dioxopiperazine-1-carboxamido)acetamido)-2-hydroxy-3,4-dihydro-2H-benzo[e][1,2]oxaborinine-8-carboxylic acid], for which the “P. aeruginosa PBP3 Potency” value on P. aeruginosa PBP3 was “D (D represents a potency <10 μM)”. Besides, the EC50 in assay [1] is less than 10 µM. Further, the MIC in the assay with N. gonorrhoeae WHO Q and with N. gonorrhoeae WHO Z was greater than 64 µg/mL in each case.
